We go through five molecules from patent US20220143026A1, “TRIPLE COMBINATION TO TREAT B-CELL MALIGNANCIES” (TG Therapeutics, Inc., priority 2020, published 2022).

For data set [1] the following is noted: in vivo; cited from earlier work.
The subject of data set [2] is follicular lymphoma (FL) DOHH-2 cell line. The conditions noted are these: read-out: IC50, inhibition of growth; cited from earlier work.
The nature of data set [3]: Phase 1/1b clinical trial, pharmacokinetics. It is filed as in vivo, human. The conditions noted are these: patients.
In data set [4] the test system is mantle cell lymphoma (MCL) Mino cell line. The conditions noted are these: read-out: IC50, inhibition of growth; cited from earlier work.
For data set [5], the system named is B-NHL cell lines. The conditions noted are these: cited from earlier work.
A short description of data set [6]: Phase 1/1b clinical trial, safety. The conditions noted are these: for treatment discontinuation: Death: CLL, N = 20, death due to SARS-CoV-2 infection.
The test system of a further data set is DLBCL SU-DHL-6 cell line. The conditions noted are these: read-out: IC50, inhibition of growth; cited from earlier work.
For data set [7] the following is noted: human, in vivo.
Data set [8] deals with B-NHL cell lines. The note with it: cited from earlier work. The source holds these as a separate data set.
The test system of data set [9] is SU-DHL-6 (GCB-DLBCL), Mino (MCL), and OCI-Ly10 (ABC-DLBCL) xenograft models. The conditions noted are these: SU-DHL-6, Mino, OCI-Ly10 xenografts; cited from earlier work.
The target in another data set is EGFR (Homo sapiens, UniProt P00533). The conditions noted are these: cited from earlier work.
Sequence of EGFR (P00533 25-1210, species assumed): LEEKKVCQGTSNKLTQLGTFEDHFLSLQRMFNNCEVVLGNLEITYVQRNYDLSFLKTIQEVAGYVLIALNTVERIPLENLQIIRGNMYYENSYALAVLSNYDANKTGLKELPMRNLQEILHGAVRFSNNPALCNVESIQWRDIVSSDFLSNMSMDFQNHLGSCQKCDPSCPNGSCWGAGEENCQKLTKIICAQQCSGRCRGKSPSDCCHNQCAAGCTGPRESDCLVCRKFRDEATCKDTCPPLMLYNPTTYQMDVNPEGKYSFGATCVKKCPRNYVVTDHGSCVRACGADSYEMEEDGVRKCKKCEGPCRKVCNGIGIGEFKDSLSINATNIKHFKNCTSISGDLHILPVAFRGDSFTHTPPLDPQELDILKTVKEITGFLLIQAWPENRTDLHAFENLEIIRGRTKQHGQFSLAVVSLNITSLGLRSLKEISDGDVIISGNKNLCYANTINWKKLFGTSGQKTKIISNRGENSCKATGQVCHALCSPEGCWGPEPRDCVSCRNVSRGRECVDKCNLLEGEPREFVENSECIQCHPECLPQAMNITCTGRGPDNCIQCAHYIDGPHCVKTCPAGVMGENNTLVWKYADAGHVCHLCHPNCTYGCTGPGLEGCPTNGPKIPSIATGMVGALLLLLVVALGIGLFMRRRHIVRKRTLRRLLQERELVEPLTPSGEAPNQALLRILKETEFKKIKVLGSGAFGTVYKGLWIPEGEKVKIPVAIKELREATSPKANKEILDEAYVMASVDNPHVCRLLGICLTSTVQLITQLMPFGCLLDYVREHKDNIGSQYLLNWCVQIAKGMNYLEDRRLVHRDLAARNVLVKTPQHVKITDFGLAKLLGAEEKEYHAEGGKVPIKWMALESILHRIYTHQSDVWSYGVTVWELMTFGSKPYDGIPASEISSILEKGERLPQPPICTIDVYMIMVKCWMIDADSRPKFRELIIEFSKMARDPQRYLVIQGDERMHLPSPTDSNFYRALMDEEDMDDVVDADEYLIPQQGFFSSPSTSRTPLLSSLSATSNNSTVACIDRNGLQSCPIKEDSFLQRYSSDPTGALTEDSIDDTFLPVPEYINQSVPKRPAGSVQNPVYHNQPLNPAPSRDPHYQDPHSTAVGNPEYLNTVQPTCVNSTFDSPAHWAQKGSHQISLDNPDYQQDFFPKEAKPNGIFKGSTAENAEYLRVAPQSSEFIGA
A short description of data set [10]: comparison of atrial fibrillation adverse events between BTK inhibitors. It is filed as in vivo, human. The conditions noted are these: N=106.
For data set [11], the target named is T1, BTK (Homo sapiens, UniProt Q06187). The note with it: read-out: kinase inhibition IC50 against BTK; cited from earlier work.
T1 sequence (Q06187 whole entry): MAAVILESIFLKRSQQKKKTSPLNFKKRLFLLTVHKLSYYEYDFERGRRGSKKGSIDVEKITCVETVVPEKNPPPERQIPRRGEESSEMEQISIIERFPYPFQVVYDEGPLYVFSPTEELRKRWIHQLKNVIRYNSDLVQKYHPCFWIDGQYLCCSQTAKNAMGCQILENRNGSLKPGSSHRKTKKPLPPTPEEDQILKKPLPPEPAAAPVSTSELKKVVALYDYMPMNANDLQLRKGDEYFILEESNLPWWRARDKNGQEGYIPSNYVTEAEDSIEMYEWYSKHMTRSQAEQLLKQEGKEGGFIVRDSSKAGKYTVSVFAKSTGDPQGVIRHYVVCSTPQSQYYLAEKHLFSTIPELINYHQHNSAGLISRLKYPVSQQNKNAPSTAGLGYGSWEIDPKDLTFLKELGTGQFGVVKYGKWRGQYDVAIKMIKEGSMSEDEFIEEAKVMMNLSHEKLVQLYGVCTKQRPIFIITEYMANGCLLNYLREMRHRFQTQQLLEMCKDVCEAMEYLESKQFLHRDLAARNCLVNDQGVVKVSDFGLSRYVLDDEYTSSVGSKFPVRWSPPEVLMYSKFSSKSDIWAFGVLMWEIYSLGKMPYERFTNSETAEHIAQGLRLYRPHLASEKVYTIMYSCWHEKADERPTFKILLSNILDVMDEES
A further data set concerns JEKO cells. The conditions noted are these: cited from earlier work.
The test system of data set [12] is IgM-activated BCR pathway. The note with it: DOHH-2 cells; cited from earlier work.
A further data set deals with B-cell malignancies. The data set can be described thus: Phase 1/1b clinical trial, efficacy (response).
For data set [13], the target named is T2, BTK (Mus musculus, UniProt P35991).
T2 construct: from tissue; host or cells: mouse spleen
T2 sequence (P35991 whole entry): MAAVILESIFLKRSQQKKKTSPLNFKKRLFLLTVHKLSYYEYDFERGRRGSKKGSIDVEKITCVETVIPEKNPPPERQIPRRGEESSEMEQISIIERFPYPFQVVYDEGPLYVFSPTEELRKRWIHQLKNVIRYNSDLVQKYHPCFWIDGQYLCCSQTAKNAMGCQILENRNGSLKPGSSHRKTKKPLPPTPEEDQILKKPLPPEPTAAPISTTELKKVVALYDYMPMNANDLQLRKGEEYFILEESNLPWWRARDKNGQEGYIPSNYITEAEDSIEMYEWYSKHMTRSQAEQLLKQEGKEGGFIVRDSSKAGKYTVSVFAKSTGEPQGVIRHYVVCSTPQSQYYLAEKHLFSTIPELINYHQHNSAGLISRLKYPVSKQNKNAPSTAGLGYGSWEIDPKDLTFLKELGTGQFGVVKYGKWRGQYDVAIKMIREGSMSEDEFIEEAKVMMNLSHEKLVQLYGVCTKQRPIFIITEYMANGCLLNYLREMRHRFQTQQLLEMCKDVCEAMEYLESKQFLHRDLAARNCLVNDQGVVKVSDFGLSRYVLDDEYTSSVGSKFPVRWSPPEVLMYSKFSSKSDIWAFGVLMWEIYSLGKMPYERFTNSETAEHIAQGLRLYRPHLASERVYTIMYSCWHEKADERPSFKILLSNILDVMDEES
The note with it: mice, single dose of TG-1701 at 12.5 mg/kg; cited from earlier work.

Data set [14] deals with T1, BTK. The data set can be described thus: Phase 1/1b clinical trial, pharmacodynamics (BTK occupancy). Further details: endogenous in cells. It is filed as in vivo.
The conditions of data set [15]: ibrutinib n=263, acalabrutinib n=266; cited from earlier work.
In data set [16] the test system is relapsed and refractory hematologic malignancies. The note with it: cited from earlier work.
The target in another data set is T3, CD20 antigen (Homo sapiens, UniProt P11836).
T3 sequence (P11836 1-297): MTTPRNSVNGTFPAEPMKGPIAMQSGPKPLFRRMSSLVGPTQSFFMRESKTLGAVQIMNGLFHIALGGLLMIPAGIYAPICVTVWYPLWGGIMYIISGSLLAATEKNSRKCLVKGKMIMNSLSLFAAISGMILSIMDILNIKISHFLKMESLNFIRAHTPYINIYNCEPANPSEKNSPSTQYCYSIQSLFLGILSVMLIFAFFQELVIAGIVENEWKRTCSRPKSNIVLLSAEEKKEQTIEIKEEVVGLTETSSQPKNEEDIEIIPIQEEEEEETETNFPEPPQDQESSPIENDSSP
The conditions noted are these: cited from earlier work.

[17] abbreviates: monotherapy 200 mg, CLL cohort, N = 20.
Setting [18] is: monotherapy 200 mg, MCL cohort, N = 18.
Setting [19] is: monotherapy 200 mg, WM cohort, N = 19.
The mark [20] stands for this setting: monotherapy dose escalation 100-400 mg, N = 23.
The mark [21] stands for this setting: patients with relapsed or refractory hematologic malignancies.

Like-named read-outs stand apart in the source and are kept apart here. Marks after values point to notes of the source that are not given here.

Description for B-cell malignancies: All patients were treated until disease progression, unacceptable toxicity, or investigator/patient decision to withdraw.
All patients were treated until disease progression, unacceptable toxicity, or investigator/patient decision to withdraw study consent.
Evaluable patients had at least one response assessment.

For the molecule `CC[C@H](Nc1ncnc2[nH]cnc12)c1nc2cccc(F)c2c(=O)n1-c1ccccc1` [Idelalisib], in data set [1], the “immune mediated colitis, grade 3” value was at least 5%; the “pneumonitis, grade 3” value is recorded as at least 4%; the “transaminitis, grade 3” value is reported as at least 8%.

A word on the IC50: it is the concentration needed to halve the response being measured. For the molecule `CC#CC(=O)N1CC[C@@H](n2cc(-c3ccc(Oc4c(F)cccc4F)cc3)c3c(N)n[nH]c(=O)c32)C1` [TG-1701, (R)-4-amino-1-(1-(but-2-ynoyl)pyrrolidin-3-yl)-3-(4-(2,6-difluorophenoxy)phenyl)-1,6-dihydro-7H-pyrrolo[2,3-d]pyridazin-7-one], the IC50 in [2] was 369 nM. Also, the “kinetics, dose proportionality of exposure” value in [3] is recorded as “Linear kinetics”. In addition, the IC50 in data set [4] is 449 nM. The “ADCP activity of rituximab in the presence of the BTK inhibitor” value in the data set with B-NHL cell lines [5] is reported as “conserved to a greater extent”. For the same molecule, the “ADCP activity of ublituximab in combination with the BTK inhibitor” value in the data set on B-NHL cell lines [5] (increasing concentrations) is reported as “conserved at all dose levels tested”. In addition, the “treatment discontinuation: Death” value in data set [6] (dose-expansion 200 mg) is listed as 1^‡ N(%). Moreover, the “treatment discontinuation: Death” value in data set [6] (dose-expansion 300 mg) is 2^‡ N(%). In the data set on DLBCL SU-DHL-6 cell line, the IC50 was 313 nM. In data set [7], the “G≥3 neutropenia” value is reported as 8%; the “changes between pre- and on-treatment diastolic blood pressure nor QTc” value is on record as “No significant changes”; the “patients with dose reduction due to treatment-related adverse events” value is recorded as “Four”; the “treatment discontinuations due to adverse events” value is recorded as “no treatment discontinuations due to adverse events”. Also, the ventricular tachyarrhythmia entry in [7] is “No cases”. Also, the “FcγR-driven ADCC and ADCP activity of anti-CD20 antibodies (e.g., ublituximab)” value in the data set on B-NHL cell lines [8] is recorded as “does not impair”. The “ADCC activity of ublituximab in the presence of the BTK inhibitor” value in the data set with B-NHL cell lines [8] (compared to monotherapy ADCC activity of ublituximab, across cell lines) is recorded as “not significantly different”. Also, the anti-tumor efficacy entry in data set [9] is given as “potent anti-tumor activity equivalent to or greater than ibrutinib”. In addition, the IC50 at EGFR is 270 nM. Moreover, in data set [10], the “% incidence of any grade Afib” value came out at 3.8% and the “% incidence of atrial fibrillation (Afib), Grade 3 or greater” value worked out at 1.9%. Moreover, on BTK [11], the IC50 is 3 nM. For the same molecule, in the data set with JEKO cells, the CXCL12-dependent migration result was “blocked”, the “IgM-dependent CD69 expression” value is given as “blocked” and the “adhesion of JEKO cells to VCAM-1” value is given as “blocked”. Also, the “IgM-activated BCR pathway: phosphorylation of BTK, PLCy2, and ERK1/2” value in [12] is given as “inhibited”. In addition, in the data set with B-cell malignancies (CLL 200-mg and 300-mg cohorts), the “hematologic variables in patients with anemia and thrombocytopenia at baseline” value is reported as “sustained improvement”. The “lymphocytosis resolution to normal or less than 50% of baseline” value in the data set on B-cell malignancies (CLL monotherapy patients) is 57.1%. The ORR in the data set with B-cell malignancies (CLL patients evaluable for response, Example 2) is 95.6%. Moreover, in the data set with B-cell malignancies (CLL patients, Example 2), the “median duration of response” value is listed as “has not been reached”. The “treatment discontinuation: Progression by iwCLL criteria” value in the data set with B-cell malignancies (CLL, dose-escalation 100-400 mg, N = 6) is 1 N(%). In addition, the “complete responses (CR) confirmed” value in the data set with B-cell malignancies (TG-1701 monotherapy) is reported as “No complete responses”. In addition, in the data set with B-cell malignancies (setting [17]), the ORR was 95% and the Stable disease is given as 1 (5) N (%). Further, in the data set on B-cell malignancies (monotherapy 200 mg, CLL cohort, N = 20, includes PR and PR-L), the Partial response was 19 (95)^b N (%). Besides, in the data set with B-cell malignancies (setting [18]), the ORR is 50%, the Partial response was 9 (50) N (%), the Progressive disease is listed as 3 (17) N (%) and the Stable disease is 6 (33) N (%). In the data set on B-cell malignancies (setting [19]), the Minor response was 6 (32) N (%), the ORR stood at 95%, the Partial response was 12 (63) N (%) and the Progressive disease is recorded as 1 (5) N (%). Also, in the data set with B-cell malignancies (setting [20]), the Minor response is 1 (4) N (%), the ORR is reported as 52%, the Partial response was 11 (48) N (%) and the Progressive disease is 3 (13) N (%). In addition, the Stable disease in the data set with B-cell malignancies (setting [20]) is 8 (35) N (%). In addition, the “BTK occupancy in the spleen” value at BTK [13] is reported as “completely occupied”. Further, at BTK [14] (100 mg QD), the BTK occupancy result is “full BTK occupancy”. For the same molecule, at BTK [14] (all dose levels studied), the “saturation of the BTK” value was around 100%. Further, the receptor occupancy at 100 mg at BTK [14] (human, 100 mg QD) was at least 99%.

For `CC#CC(=O)N1CCC[C@H]1c1nc(-c2ccc(C(=O)Nc3ccccn3)cc2)c2c(N)nccn12` [acalabrutinib], in data set [15], the “% incidence of any grade Afib” value is listed as 9% and the “% incidence of atrial fibrillation (Afib), Grade 3 or greater” value was 4.5%.

`CC(C)Oc1ccc(-c2nn([C@@H](C)c3oc4ccc(F)cc4c(=O)c3-c3cccc(F)c3)c3ncnc(N)c23)cc1F` [umbralisib, (S)-2-(1-(4-amino-3-(3-fluoro-4-isopropoxyphenyl)-1H-pyrazolo[3,4-d]pyrimidin-1-yl)ethyl)-6-fluoro-3-(3-fluorophenyl)-4H-chromen-4-one]: in data set [16] (in vivo), the “doses with signs of clinical activity” value is recorded as at least 800 mg each day. In data set [16] (setting [21]), the hepatic toxicity result is recorded as “no reported hepatic toxicity” and the tolerability result is “well-tolerated”. In addition, the “patients with dose reduction of umbralisib due to G3-4 ALT elevation” value in data set [6] (combination arm, dose escalation) worked out at 3 patients.

B1: Ublituximab: chimeric monoclonal antibody targeting a unique epitope on the CD20 antigen, glycoengineered for enhanced affinity for Fcγ RIIIa receptors (antibody, V domains shown)
VH: QAYLQQSGAELVRPGASVKMSCKASGYTFTSYNMHWVKQTPRQGLEWIGGIYPGNGDTSYNQKFKGKATLTVGKSSSTAYMQLSSLTSEDSAVYFCARYDYNYAMDYWGQGTSVTVSS
VL: QIVLSQSPAILSASPGEKVTMTCRASSSVSYMHWYQQKPGSSPKPWIYATSNLASGVPARFSGSGSGTSYSFTISRVEAEDAATYYCQQWTFNPPTFGGGTRLEIK
modifications: Ublituximab Variable heavy chain; Ublituximab Variable light chain
In the case of B1, the “ADCC activity compared with rituximab and ofatumab” value with CD20 antigen is “greater”.
